Data as given in paper PMC9663597, “Anti-infective therapy using species-specific activators of Staphylococcus aureus ClpP” (Nature Communications, 2022).
≈ marks a conversion by molar mass, not a printed value. Like-named read-outs stand apart in the source and are kept apart here.

Assays:
[1] = target: T1, SaClpP (Staphylococcus aureus ClpP) (Staphylococcus aureus, UniProt Q2G036); assay: ITC; also BLI (Kd […]), DSF, CETSA, X-ray crystal structure; format: binding
[2] = system: T2, Staphylococcus aureus XJ049; assay: microbe, parasite or virus in culture; parameters: species or system Staphylococcus aureus strains; Minimum inhibitory concentration, growth inhibition of S. aureus strains in culture; conditions: XJ049, read-out: MIC
T2 construct: XJ049
From the text: (§1) Given our species-specific activators suppress the growth of S. aureus 8325-4, we then tested the antistaphylococcal spectrum of (R)- and (S)-ZG197 against a panel of S. aureus strains, including the Newman strain and multidrug-resistant MRSA strains. The USA300, NRS-1, NRS-70, NRS-100, NRS-108, and NRS-271 MRSA strains were collected from the Network on Antimicrobial Resistance in S. aureus (Supplementary Table 2). […] We also tested the antibacterial effects of our activators on five hospital-acquired, multidrug-resistant MRSA isolates in China, including XJ009, XJ036, XJ049, XJ051, and XJ052 (Supplementary Table 2). […] We next performed a minimum inhibitory concentration (MIC) assay in [compound left out] culture to determine the antibacterial effects of our activators on the S. aureus 8325-4 strain. […] To dissect whether our activators’ antistaphylococcal activity depends on ClpP in S. aureus, we determined the inhibitory effects of our activators on the ΔclpP mutant and the complemented clpP or clpPI91W mutant strains, respectively (Fig. 5a). The selective (R)- and (S)-ZG197 activators or the global activators ICG-001 and ONC212 minimally suppress the growth of ΔclpP mutant strain, and all the MICs are observed to be over 256 μg/mL. The antibacterial phenotype can be rescued in the complemented clpP strain in the presence of ClpP activators.

[3] = system: T3, Staphylococcus aureus XJ009; assay: microbe, parasite or virus in culture; parameters: species or system Staphylococcus aureus strains; Minimum inhibitory concentration, growth inhibition of S. aureus strains in culture; conditions: XJ009, read-out: MIC
T3 construct: XJ009
From the text: as §1

[4] = system: T4, Staphylococcus aureus XJ051; assay: microbe, parasite or virus in culture; parameters: species or system Staphylococcus aureus strains; Minimum inhibitory concentration, growth inhibition of S. aureus strains in culture; conditions: XJ051, read-out: MIC
T4 construct: XJ051
From the text: as §1

[5] = system: T5, Staphylococcus aureus NRS100; assay: microbe, parasite or virus in culture; parameters: species or system Staphylococcus aureus strains; Minimum inhibitory concentration, growth inhibition of S. aureus strains in culture; conditions: NRS100, read-out: MIC
T5 construct: NRS100
From the text: as §1

[6] = system: T6, Staphylococcus aureus Newman; assay: microbe, parasite or virus in culture; parameters: species or system Staphylococcus aureus strains; Minimum inhibitory concentration, growth inhibition of S. aureus strains in culture; conditions: NEWMAN, read-out: MIC
T6 construct: Newman
From the text: as §1

[7] = system: T7, Staphylococcus aureus NRS271; assay: microbe, parasite or virus in culture; parameters: species or system Staphylococcus aureus strains; Minimum inhibitory concentration, growth inhibition of S. aureus strains in culture; conditions: NRS271, read-out: MIC
T7 construct: NRS271
From the text: as §1

[8] = system: T8, Staphylococcus aureus USA300 LAC; assay: microbe, parasite or virus in culture; parameters: species or system Staphylococcus aureus strains; Minimum inhibitory concentration, growth inhibition of S. aureus strains in culture; conditions: USA300, read-out: MIC
T8 construct: USA300 LAC
From the text: as §1

[9] = system: T9, Staphylococcus aureus NRS70; assay: microbe, parasite or virus in culture; parameters: species or system Staphylococcus aureus strains; Minimum inhibitory concentration, growth inhibition of S. aureus strains in culture; conditions: NRS70, read-out: MIC
T9 construct: NRS70
From the text: as §1

[10] = system: T10, Staphylococcus aureus NRS1; assay: microbe, parasite or virus in culture; parameters: species or system Staphylococcus aureus strains; Minimum inhibitory concentration, growth inhibition of S. aureus strains in culture; conditions: NRS1, read-out: MIC
T10 construct: NRS1
From the text: as §1

[11] = system: T11, Staphylococcus aureus NRS108; assay: microbe, parasite or virus in culture; parameters: species or system Staphylococcus aureus strains; Minimum inhibitory concentration, growth inhibition of S. aureus strains in culture; conditions: NRS108, read-out: MIC
T11 construct: NRS108
From the text: as §1

[12] = system: T12, Staphylococcus aureus XJ052; assay: microbe, parasite or virus in culture; parameters: species or system Staphylococcus aureus strains; Minimum inhibitory concentration, growth inhibition of S. aureus strains in culture; conditions: XJ052, read-out: MIC
T12 construct: XJ052
From the text: as §1

[13] = system: T13, Staphylococcus aureus XJ036; assay: microbe, parasite or virus in culture; parameters: species or system Staphylococcus aureus strains; Minimum inhibitory concentration, growth inhibition of S. aureus strains in culture; conditions: XJ036, read-out: MIC
T13 construct: XJ036
From the text: as §1

[14] = target: T1, SaClpP (Staphylococcus aureus ClpP); assay: ITC; also BLI (Kd […]), DSF, CETSA, X-ray crystal structure, alpha-casein hydrolysis EC50 […]; format: binding
[15] = target: T14, SaClpPI91W (Staphylococcus aureus, UniProt Q2G036, I91W); assay: ITC; also DSF, CETSA, alpha-casein hydrolysis; format: binding
T14 construct: gene clpP

[16] = system: T2, Staphylococcus aureus XJ049; assay: microbe, parasite or virus in culture; parameters: species or system Staphylococcus aureus strains; Minimum inhibitory concentration, growth inhibition of S. aureus strains in culture; conditions: XJ049
From the text: as §1, with “liquid” for “[compound left out]”

[17] = system: T4, Staphylococcus aureus XJ051; assay: microbe, parasite or virus in culture; parameters: species or system Staphylococcus aureus strains; Minimum inhibitory concentration, growth inhibition of S. aureus strains in culture; conditions: XJ051
From the text: as §1, with “liquid” for “[compound left out]”

[18] = system: T12, Staphylococcus aureus XJ052; assay: microbe, parasite or virus in culture; parameters: species or system Staphylococcus aureus strains; Minimum inhibitory concentration, growth inhibition of S. aureus strains in culture; conditions: XJ052
From the text: as §1, with “liquid” for “[compound left out]”

[19] = system: T13, Staphylococcus aureus XJ036; assay: microbe, parasite or virus in culture; parameters: species or system Staphylococcus aureus strains; Minimum inhibitory concentration, growth inhibition of S. aureus strains in culture; conditions: XJ036
From the text: as §1, with “liquid” for “[compound left out]”

[20] = target: T15, Staphylococcus aureus ClpP (Staphylococcus aureus), Q2G036; assay: crystal structure; SaClpP (10 mg/mL) with 5-fold ZG180, sitting drop vapor diffusion at 16 °C, 30% 2-methyl-2,4-pentanediol, 0.1 M sodium acetate/HCl pH 8.0, 20 mM calcium chloride; 1.90 Å; conditions: remark: other sources report otherwise
T15 chain: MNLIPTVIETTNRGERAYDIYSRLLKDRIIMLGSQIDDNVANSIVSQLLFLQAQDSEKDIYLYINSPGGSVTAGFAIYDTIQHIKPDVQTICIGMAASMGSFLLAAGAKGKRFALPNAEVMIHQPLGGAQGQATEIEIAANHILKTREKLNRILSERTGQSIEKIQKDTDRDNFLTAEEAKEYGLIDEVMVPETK

Q: Which results are given for `CC[C@@H](C)[C@H]1C(=O)N([C@@H](C)c2cccc3ccccc23)C[C@@H]2N(C(=O)NCCCC(F)(F)F)CCC(=O)N12` [(S)-ZG197]?
A: Kd [1]: 5 ± 0.3 µM; MIC [2]: 8 mg/L (≈ 15 µM); MIC [3]: 8 mg/L (≈ 15 µM); MIC [4]: 4 mg/L (≈ 7.51 µM); MIC [5]: 2 mg/L (≈ 3.76 µM); MIC [6]: 2 mg/L (≈ 3.76 µM); MIC [7]: 4 mg/L (≈ 7.51 µM); MIC [8]: 8 mg/L (≈ 15 µM); MIC [9]: 4 mg/L (≈ 7.51 µM); MIC [10]: 8 mg/L (≈ 15 µM); MIC [11]: 4 mg/L (≈ 7.51 µM); MIC [12]: 4 mg/L (≈ 7.51 µM); MIC [13]: 4 mg/L (≈ 7.51 µM)

Q: With `CCC[C@@H]1C[C@@H](C(=O)N[C@@H]([C@H]2O[C@H](SC)[C@H](O)[C@@H](O)[C@H]2O)[C@H](C)Cl)N(C)C1` [Clindamycin] as the molecule, how does the MIC [4] read?
A: 0.06 mg/L (≈ 0.141 µM)

Q: What about the MIC [13] of the same molecule?
A: 0.13 mg/L (≈ 0.306 µM)

Q: With `CC[C@H](C)[C@H]1C(=O)N([C@H](C)c2cccc3ccccc23)C[C@@H]2N(C(=O)NCCCC(F)(F)F)CCC(=O)N12` [(R)-ZG197] as the molecule, how does the Kd [14] read?
A: 2.5 ± 0.2 µM

Q: What about the Kd [15] of the same molecule?
A: 0.93 ± 0.2 µM

Q: And the MIC [2]?
A: 0.5 mg/L (≈ 0.939 µM)

Q: And the MIC [3]?
A: 1 mg/L (≈ 1.88 µM)

Q: And the MIC [4]?
A: 0.5 mg/L (≈ 0.939 µM)

Q: What about the MIC [5] of the same molecule?
A: 0.5 mg/L (≈ 0.939 µM)

Q: What about the MIC [6] of the same molecule?
A: 0.5 mg/L (≈ 0.939 µM)

Q: And the MIC [7]?
A: 2 mg/L (≈ 3.76 µM)

Q: What about the MIC [8] of the same molecule?
A: 0.5 mg/L (≈ 0.939 µM)

Q: And the MIC [9]?
A: 0.5 mg/L (≈ 0.939 µM)

Q: And the MIC [10]?
A: 2 mg/L (≈ 3.76 µM)

Q: And the MIC [11]?
A: 0.5 mg/L (≈ 0.939 µM)

Q: And the MIC [12]?
A: 1 mg/L (≈ 1.88 µM)

Q: What about the MIC [13] of the same molecule?
A: 1 mg/L (≈ 1.88 µM)

Q: For `Cc1onc(-c2ccccc2)c1C(=O)N[C@@H]1C(=O)N2[C@@H]1SC(C)(C)[C@@H]2C(=O)O` [Oxacillin], which MIC [3] is on record?
A: 4 mg/L (≈ 9.96 µM)

Q: What about the MIC [5] of the same molecule?
A: 0.1 mg/L (≈ 0.249 µM)

Q: And the MIC [6]?
A: 0.1 mg/L (≈ 0.249 µM)

Q: What about the MIC [9] of the same molecule?
A: 2 mg/L (≈ 4.98 µM)

Q: What about the MIC [11] of the same molecule?
A: 0.5 mg/L (≈ 1.25 µM)

Q: What about the MIC [13] of the same molecule?
A: 1 mg/L (≈ 2.49 µM)

Q: Which MIC [2] does the source give for `O=C1C2=C(CCN(Cc3ccccc3)C2)N2CCN=C2N1Cc1ccc(C(F)(F)F)cc1` [ONC212] here?
A: 0.25 mg/L (≈ 0.568 µM)

Q: And the MIC [3]?
A: 0.5 mg/L (≈ 1.14 µM)

Q: And the MIC [4]?
A: 1 mg/L (≈ 2.27 µM)

Q: And the MIC [5]?
A: 0.5 mg/L (≈ 1.14 µM)

Q: What about the MIC [6] of the same molecule?
A: 0.25 mg/L (≈ 0.568 µM)

Q: What about the MIC [7] of the same molecule?
A: 0.5 mg/L (≈ 1.14 µM)

Q: And the MIC [8]?
A: 0.5 mg/L (≈ 1.14 µM)

Q: And the MIC [9]?
A: 0.25 mg/L (≈ 0.568 µM)

Q: And the MIC [10]?
A: 1 mg/L (≈ 2.27 µM)

Q: What about the MIC [11] of the same molecule?
A: 0.5 mg/L (≈ 1.14 µM)

Q: And the MIC [12]?
A: 0.25 mg/L (≈ 0.568 µM)

Q: What about the MIC [13] of the same molecule?
A: 0.25 mg/L (≈ 0.568 µM)

Q: How did the MIC [4] turn out when `CC[C@H]1OC(=O)[C@H](C)[C@@H](O[C@H]2C[C@@](C)(OC)[C@@H](O)[C@H](C)O2)[C@H](C)[C@@H](O[C@@H]2O[C@H](C)C[C@H](N(C)C)[C@H]2O)[C@](C)(O)C[C@@H](C)C(=O)[C@H](C)[C@@H](O)[C@]1(C)O` [Erythromycin] was run?
A: 32 mg/L (≈ 43.6 µM)

Q: And the MIC [5]?
A: 0.06 mg/L (≈ 0.0818 µM)

Q: What about the MIC [7] of the same molecule?
A: 0.5 mg/L (≈ 0.681 µM)

Q: What about the MIC [8] of the same molecule?
A: 16 mg/L (≈ 21.8 µM)

Q: And the MIC [13]?
A: 0.25 mg/L (≈ 0.341 µM)

Q: What does the source list for `CNC(C)[C@@H]1CC[C@@H](N)[C@@H](O[C@H]2[C@H](O)[C@@H](O[C@H]3OC[C@](C)(O)[C@H](NC)[C@H]3O)[C@H](N)C[C@@H]2N)O1` (stereo partly drawn) [Gentamicin]?
A: MIC [16]: 32 mg/L (≈ 67 µM); MIC [17]: 64 mg/L (≈ 134 µM); MIC [18]: 64 mg/L (≈ 134 µM); MIC [19]: 0.25 mg/L (≈ 0.523 µM)

Q: Which results are given for `CCn1cc(C(=O)O)c(=O)c2cc(F)c(N3CCNCC3)cc21` [Norfloxacin]?
A: MIC [3]: 0.5 mg/L (≈ 1.57 µM); MIC [4]: 64 mg/L (≈ 200 µM); MIC [13]: 64 mg/L (≈ 200 µM)

Q: Which MIC [7] does the source give for `CN(C)[C@@H]1C(O)=C(C(N)=O)C(=O)[C@@]2(O)C(O)=C3C(=O)c4c(O)cccc4[C@@](C)(O)[C@H]3C[C@@H]12` [Tetracycline] here?
A: 2.5 mg/L (≈ 5.63 µM)

Q: And the MIC [8]?
A: 16 mg/L (≈ 36 µM)

Q: What about the MIC [9] of the same molecule?
A: 0.06 mg/L (≈ 0.135 µM)

B1: Staphylococcus aureus ClpP, Q2G036 1-195 (enzyme)
chain: T15 chain
Q: Which stoichiometry N [20] does the source give for B1 here?
A: 14
